Article PMC10874388, “Cyclic peptides discriminate BCL-2 and its clinical mutants from BCL-XL by engaging a single-residue discrepancy” (Nature Communications, 2024)
Values joined by “and” are separate entries in the source; they are usually repeats but may differ in a detail not shown here. Equal values may be shown once. Starred links: 1 amine or outer side, 2 acyl side, 3 side chain; linkers in the order of their positions; H or OH if unused. Positions of bridges follow the written chain, without caps; N, C: chain ends. Residues, ends and D or L forms follow the SMILES beside them. No end group written: not given here. X1 = O=C(C[*:2])NCCNC(=O)c1ccc(C2=N[C@H](C(=O)[*:1])CS2)cc1; cADT = 2-aryl-4,5-dihydrothiazole (ADT) linker

T1: chimeric human BCL-2 (residues 1-50 and 92-207, residues 35-50 replaced with residues 33-48 of BCL-XL) (human, UniProt P10415 1-34; Q07817-1 33-48; P10415 92-207, biotin (biotinylated for SPR; site not stated))
T1 construct: BCL-2, human, residues 1-34 of the chimera (internal loop 51-91 removed; residues 35-50 replaced with residues 33-48 of BCL-XL); BCL-XL, human, residues 33-48, in place of BCL-2 residues 35-50; BCL-2, human, residues 92-207; Biotinylated for SPR; used as such for crystals and fluorescence polarisation; also called BCL-2 WT; source: E. coli BL21 (DE3), purified (Ni-NTA, Superdex 75, RESOURCE Q, …)
T1 chain (looked up): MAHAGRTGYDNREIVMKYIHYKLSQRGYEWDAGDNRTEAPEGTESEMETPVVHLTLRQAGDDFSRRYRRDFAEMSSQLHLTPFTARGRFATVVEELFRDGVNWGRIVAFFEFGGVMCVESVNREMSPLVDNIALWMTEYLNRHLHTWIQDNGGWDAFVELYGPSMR


Legend:
[1] = tested on: RS4:11 cells; assay: Cell viability assay (CellTiter-Glo), RS4:11; format: cell-based; conditions: RS4:11, single wells
Description: (§1) The cell lines Jurkat (TIB-152), El4 (TIB-39), Daudi (ccl-213), RS4:11 (crl-1873), A549 (ccl-185), HepG2 (hb-8065) and PANC-1 (crl-1469) were purchased from ATCC (American Type Culture Collection), and MGC-803 (C6582) was purchased from Beyotime (https://www.beyotime.com/product/C6582.htm). […] Daudi and RS4:11 cells were cultured in RPMI-1640 medium (HyClone, SH30809.01) and 10% FBS (Gibco, 10099-141), whereas HepG2, MGC-803 and PANC-1 cells were cultured in MDEM (HyClone, SH30243.01). Cells were maintained at 37 °C under a humidified, 5% (v/v) CO2-containing atmosphere.
(§2) Cell viability was measured using CellTiter-Glo® 2.0 Reagent (Promega, G9242). […] After different inhibitors were added into serum-free medium and cultured for 4 h (RS4:11 for 6 h), FBS were supplemented to 10% and then incubated totally for 24 h or 48 h. Finally, the IC50 values were calculated based on measurements using a microplate reader (Thermo, Varioskan LUX). Statistical analysis was performed using software GraphPad Prism 7.0.

[2] = tested on: Daudi cells; assay: Cell viability assay (CellTiter-Glo), Daudi; format: cell-based; conditions: 48 h treatment, CellTiter-Glo
Description: as §1, §2

[3] = tested on: Jurkat cells; assay: Apoptosis assay, Annexin V-FITC/PI staining and flow cytometry; format: cell-based; conditions: for cell apoptosis(%): Figure 6b, replicate values; for Proportion of apoptotic cells: Jurkat, 24 h
Description: Jurkat cells were seeded to 6-well plates at a density of 4 ×10^5 cells per well. Cells were incubated in the presence of DMSO, venetoclax at 2.5 μM, cp1-TAT at 30 μM, cp2-TAT at 30 μM, or cp3-TAT at 20 μM in serum-free RPMI medium for 4 h. After being incubated totally for 24 h, cells were washed once with PBS and stained with 100 μL binding buffer containing 5 μL Annexin V-FITC and 10 μL PI for 15 min, followed by addition of 400 μL binding buffer to detect cell apoptosis with FCM (BD FACSAria Fusion). Statistical analysis was performed using software FlowJo V10 and GraphPad Prism 7.0.

[4] = tested on: Jurkat cells; assay: Mitochondrial membrane potential (JC-1), flow cytometry and fluorescence microscopy; format: cell-based; conditions: for Q1(%) / Q1(%)/Q3(%) / Q3(%): Figure 6d, 4h, replicate values; for ΔΨm (ratio of red over green fluorescence, Q1/Q3) / Relative ΔΨm by JC-1 fluorescence staining (microscopy): Jurkat; for ΔΨm (ratio of red over green fluorescence, Q1/Q3): 4 h treatment, JC-1, flow cytometry, n = 3; for Relative ΔΨm by JC-1 fluorescence staining (microscopy): 24 h treatment (Supplementary Fig. 13)
Description: For the mitochondrial membrane potential (ΔΨm) analysis, the mitochondrial membrane potential assay kit with JC-1 dye (Beyotime, C2006) was used according to the manufacturer’s protocol. […] The value of ΔΨm was expressed as the ratio of red fluorescence intensity over green fluorescence intensity. After treated with JC-1, fluorescence intensity of Jurkat cells was tested by flow cytometry (BD FACSAria Fusion) and fluorescence microscopy (NIKON Ti-E), respectively. All experiments were performed in triplicate. Statistical analysis was performed using software GraphPad Prism 7.0.

[5] = target: T2, human BCL-XL (residues 1-210, with 27-81 and 210-233 removed) (human, UniProt Q07817-1 1-209, 27-81 removed, biotin (biotinylated for SPR; site not stated)); assay: SPR; Biacore T200; biotinylated proteins immobilised on a CAP sensor chip; peptides flowed in multiple cycles (25-12800 nM, depending on the peptides) at 30 uL/min; 10 mM PBS, 50 uM EDTA, 0.05% Tween-20, 25 °C; affinity fitting, 1:1 binding model; conditions: both partners purified
T2 construct: BCL-XL, human; printed as residues 1-210, with 27-81 and 210-233 removed (so the last residue is 209 or 210); source: E. coli BL21 (DE3), purified (Ni-NTA, Superdex 75, RESOURCE Q, Superdex 200)

[6] = target: T1, chimeric human BCL-2 (residues 1-50 and …); assay: as above; conditions: both partners purified

T2 sequence (Q07817 other isoform, or with tags, fused parts or gaps 27-81 removed | 27-81 removed): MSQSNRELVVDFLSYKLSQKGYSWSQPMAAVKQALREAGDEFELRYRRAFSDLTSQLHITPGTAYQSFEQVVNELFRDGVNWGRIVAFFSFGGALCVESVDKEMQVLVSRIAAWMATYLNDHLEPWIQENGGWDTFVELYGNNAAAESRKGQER

| Kd [5] [nM] | Kd [6] [nM] | Molecule | raw luminescence reading ([1]; 0.0488281 uM) | raw luminescence reading ([1]; 0.0976562 uM) | raw luminescence reading ([1]; 0.195312 uM) | raw luminescence reading ([1]; 0.390625 uM) | raw luminescence reading ([1]; 0.78125 uM) | raw luminescence reading ([1]; 1.5625 uM) | raw luminescence reading ([1]; 3.125 uM) | raw luminescence reading ([1]; 6.25 uM) | raw luminescence reading ([1]; 12.5 uM) | inhibition rate ([1]; 12.5 uM, 12.5 µM) | raw luminescence reading ([1]; 25 uM) | inhibition rate ([1]; 25 uM, 25 µM) | cell apoptosis(%) [3] | Q1(%) [4] | Q1(%)/Q3(%) [4] | Q3(%) [4] | ΔΨm (ratio of red over green fluorescence, Q1/Q3) [4] | Relative ΔΨm by JC-1 fluorescence staining (microscopy) [4] | also measured |
| --- | --- | --- | --- | --- | --- | --- | --- | --- | --- | --- | --- | --- | --- | --- | --- | --- | --- | --- | --- | --- | --- |
| – | – | CC[C@H](C)[C@@H]1NC(=O)[C@@H]2CCCN2C(=O)[C@@H]2CSC(=N2)c2ccc(cc2)C(=O)NCCNC(=O)CSC[C@@H](C(=O)NCC(=O)N[C@@H](CO)C(=O)NCC(=O)N[C@@H](CO)C(=O)N[C@@H](CCCNC(=N)N)C(=O)N[C@@H](CCCCN)C(=O)N[C@@H](CCCCN)C(=O)N[C@@H](CCCNC(=N)N)C(=O)N[C@@H](CCCNC(=N)N)C(=O)N[C@@H](CCC(N)=O)C(=O)N[C@@H](CCCNC(=N)N)C(=O)N[C@@H](CCCNC(=N)N)C(=O)N[C@@H](CCCNC(=N)N)C(N)=O)NC(=O)[C@H](CCC(=O)O)NC(=O)[C@H](C(C)C)NC(=O)[C@H](CC(=O)O)NC(=O)[C@H](Cc2c[nH]c3ccccc23)NC(=O)[C@@H]2CCCN2C(=O)[C@H](Cc2ccc(O)cc2)NC(=O)[C@H](CCCNC(=N)N)NC1=O [cp3-TAT] (PIRYPWDVECGSGSRKKRRQRRR-NH2; linker N-10 via X1; C-terminus assumed) | 433900 and 423300 and 457600 and 413600 and 399000 and 376500 | 420200 and 404600 and 437700 and 401400 and 384500 and 361600 | 419000 and 421800 and 444400 and 422500 and 407600 and 396300 | 424000 and 396600 and 443200 and 395300 and 386700 and 379800 | 411200 and 409100 and 439500 and 400400 and 395700 and 387400 | 353400 and 425900 and 446500 and 460500 and 369200 and 455200 | 352000 and 428300 and 434800 and 455400 and 358000 and 465500 | 339600 and 384800 and 395500 and 428900 and 341900 and 416000 | 266500 and 298700 and 305700 and 333300 and 270500 and 326800 | 37% and 29% and 28% and 21% and 36% and 23% | 85450 and 98110 and 94850 and 106300 and 88910 and 106600 | 80% and 77% and 78% and 75% and 79% | 99.03% and 93.5% | 56.7% and 57.7% and 59.6% | 1.435 and 1.514 and 1.628 | 39.5% and 38.1% and 36.6% | 1.53 | red fluorescence almost disappeared | inhibition rate ([1]; 50 uM): 100%; inhibition rate ([1]; 100 uM): 100%; IC50 [2]: 7940 nM; Proportion of apoptotic cells ([3]; 20 μM): 99.03% |
| – | – | C[C@@H]1NC(=O)[C@@H]2CCCN2C(=O)[C@@H]2CSC(=N2)c2ccc(cc2)C(=O)NCCNC(=O)CSC[C@@H](C(=O)NCC(=O)N[C@@H](CO)C(=O)NCC(=O)N[C@@H](CO)C(=O)N[C@@H](CCCNC(=N)N)C(=O)N[C@@H](CCCCN)C(=O)N[C@@H](CCCCN)C(=O)N[C@@H](CCCNC(=N)N)C(=O)N[C@@H](CCCNC(=N)N)C(=O)N[C@@H](CCC(N)=O)C(=O)N[C@@H](CCCNC(=N)N)C(=O)N[C@@H](CCCNC(=N)N)C(=O)N[C@@H](CCCNC(=N)N)C(N)=O)NC(=O)[C@H](CCC(=O)O)NC(=O)[C@H](Cc2ccc(O)cc2)NC(=O)[C@H](CC(=O)O)NC(=O)[C@H](Cc2c[nH]c3ccccc23)NC(=O)CNC(=O)[C@H](Cc2ccc(O)cc2)NC(=O)[C@H](CCCNC(=N)N)NC1=O [cp1-TAT] (PARYGWDYECGSGSRKKRRQRRR-NH2; linker N-10 via X1; C-terminus assumed) | 483100 and 539500 and 548500 and 508300 and 527200 and 488600 | 528800 and 591800 and 582200 and 559700 and 554700 and 529500 | 524900 and 538800 and 551800 and 528900 and 518500 and 499500 | 511700 and 533900 and 533200 and 520400 and 504300 and 479000 | 535400 and 544100 and 562800 and 550400 and 519400 and 494800 | 520400 and 578500 and 612400 and 550500 and 491200 and 506800 | 414000 and 466800 and 497600 and 501300 and 428800 and 513500 | 401900 and 468400 and 486300 and 500900 and 419400 and 497100 | 380500 and 444100 and 470000 and 488300 and 390700 and 473300 | 11% | 309300 and 375600 and 407800 and 416800 and 350200 and 401000 | 42% and 29% and 23% and 21% and 34% and 24% | 66.77% and 60.2% | 67.4% and 59.1% and 60.9% | 5.861 and 3.177 and 3.421 | 11.5% and 18.6% and 17.8% | 4.15 | slightly decreased | inhibition rate ([1]; 0.195312 uM, 0.195312 µM): 0.825% and -1.8% and -4.26% and 0.0693% and 2% and 5.62%; raw luminescence reading ([1]; 50 uM): 222600 and 265500 and 282300 and 297300 and 246800 and 283000; inhibition rate ([1]; 50 uM, 50 µM): 58% and 50% and 47% and 44% and 53%; raw luminescence reading ([1]; 100 uM): 63070 and 74540 and 82840 and 89800 and 66010 and 86930; inhibition rate ([1]; 100 uM, 100 µM): 88% and 86% and 84% and 83%; Proportion of apoptotic cells ([3]; 30 μM): 66.77% |
| 470 | 80 | CPIRYGWDEFC (linker 1-11 via cADT (inferred), cp4 is cp2 with E6 substituted by G6; source: synthetic peptide) [cp4] | – | – | – | – | – | – | – | – | – | – | – | – | – | – | – | – | – | – | – |
| 40 | 80 | CPIRYPWDEFC (linker 1-11 via cADT (inferred), cp5 is cp2 with E6 substituted by P6; source: synthetic peptide) [cp5] | – | – | – | – | – | – | – | – | – | – | – | – | – | – | – | – | – | – | – |
